Source: patent publication US12121530B2, “Composition and methods for treating articulating joint disorders with nucleoside reverse transcriptase inhibitors” (RHODE ISLAND HOSPITAL, priority 2018, dated 2024)
Entries after “also recorded” stand apart in the source; their conditions may differ.

Tested on: human chondrocyte cell line-C28
Test: gene expression in human chondrocyte cell line C28 treated with 3TC
Format: cell-based
Description: Both miRNA and mRNA were extracted using miRNeasy Mini Kit (Qiagen®, Germantown, Md., USA) and reversely transcribed using miScriptIIRT Kit (Qiagen®, Germantown, Md., USA) according to manufacturer's instruction. qPCR was performed using SYBR Green PCR master mix (Qiagen®, Germantown, Md., USA) on a Bio-Rad CFX96 real-time PCR detection system (Bio-Rad®, Hercules, Calif., USA). Amplification conditions are as follows: 95° C. for 10 min, 40 cycles of 95° C. for 10″, 55° C. for 30″, and 72° C. for 30″. 18S ribosomal or GAPDH RNA was used as an internal control gene to normalize the mRNAs level. The ubiquitously expressed snRNA U6 was used as an endogenous control for miRNAs level. Primers were synthesized by Integrated DNA Technologies (http://www.idtdna.com). The primers for miR-365 were purchased from Qiagen. Fold changes of mRNA and miRNAs were calculated by the 2^^(ΔΔCt) method and normalized to 18S/GAPDH or U6 snRNA, respectively. […]

[1] = human chondrocytes C28, RNA level, various dosages

For `Nc1ccn([C@@H]2CS[C@H](CO)O2)c(=O)n1` [3TC, lamivudine], the Acan expression [1] was “promotes; also recorded: stimulated”, the Adamts5 expression [1] was “inhibited” and the “COL10 (COL10A1) expression” value [1] was “inhibited”. For the same compound, the IHH expression [1] was “inhibits”, the Line-1 expression [1] was “inhibited” and the MMP13 expression [1] was “inhibited”. The COL2A1 expression (human chondrocytes, RNA level) was “stimulated”.
